Assay results: US12161621B2, “Methods for fructokinase mediation of alcohol craving and alcohol induced liver disease” (REGENTS OF THE UNIVERSITY OF COLORADO, A BODY CORPORATE, priority 2018, dated 2024)

System: wild type mice
Experiment: two-bottle choice alcohol preference with fructokinase inhibitor
Format: in vivo
Conditions: wild type mice on 10 percent alcohol vs water, fructokinase inhibitor administered for 4 weeks, FIG. 2G
From the text: FIG. 2C provides delta FosB expression and densitometry in nucleus accumbens (Nacc) of wild type mice exposed to 0%, 3%, 6% and 10% alcohol for 10 weeks. FIG. 2D includes delta FosB expression and densitometry in nucleus accumbens (Nacc) of wild type and fructokinase knockout mice exposed to 10% alcohol for 10 weeks. […] FIG. 2F provides evidence of conditioned place preference in wild type and fructokinase knockout mice injected alcohol (2 g/kg). Data represents preference shifts for the paired section after vs before conditioning (time spent in the paired chamber posttest-pretest). […] One Way ANOVA with Tukey post hoc analysis; n=5 mice per group. Further evidence that KHK may mediate alcohol preference is shown by a conditioned place preference study, in which mice are injected with either alcohol or saline then placed in a distinctly different section of the apparatus for 4 alcohol and 4 saline trials. The mice were then tested in an alcohol-free state to determine whether they preferred the section of the apparatus that was paired with alcohol. […] It was also determined that preference for alcohol could be blocked by administering a fructokinase inhibitor (i.e., osthol) for 4 weeks to wild type mice on 10 percent alcohol. […] Thus, these studies show the novel finding that blocking fructokinase can block the craving for alcohol.

For `COc1ccc2ccc(=O)oc2c1CC=C(C)C` [osthol], which “reduced preference for alcohol in a two bottle preference system” value is on record?
Its value is 50%.
